{"source": "BindingDB's records for doi:10.7270/Q2WS8RN8", "about": "(The Scripps Research Institute Molecular Screening Center, 2008)", "target": "T1, Signal transducer and activator of transcription 1-alpha/beta (Homo sapiens, UniProt P42224)", "T1 sequence (P42224 whole entry)": "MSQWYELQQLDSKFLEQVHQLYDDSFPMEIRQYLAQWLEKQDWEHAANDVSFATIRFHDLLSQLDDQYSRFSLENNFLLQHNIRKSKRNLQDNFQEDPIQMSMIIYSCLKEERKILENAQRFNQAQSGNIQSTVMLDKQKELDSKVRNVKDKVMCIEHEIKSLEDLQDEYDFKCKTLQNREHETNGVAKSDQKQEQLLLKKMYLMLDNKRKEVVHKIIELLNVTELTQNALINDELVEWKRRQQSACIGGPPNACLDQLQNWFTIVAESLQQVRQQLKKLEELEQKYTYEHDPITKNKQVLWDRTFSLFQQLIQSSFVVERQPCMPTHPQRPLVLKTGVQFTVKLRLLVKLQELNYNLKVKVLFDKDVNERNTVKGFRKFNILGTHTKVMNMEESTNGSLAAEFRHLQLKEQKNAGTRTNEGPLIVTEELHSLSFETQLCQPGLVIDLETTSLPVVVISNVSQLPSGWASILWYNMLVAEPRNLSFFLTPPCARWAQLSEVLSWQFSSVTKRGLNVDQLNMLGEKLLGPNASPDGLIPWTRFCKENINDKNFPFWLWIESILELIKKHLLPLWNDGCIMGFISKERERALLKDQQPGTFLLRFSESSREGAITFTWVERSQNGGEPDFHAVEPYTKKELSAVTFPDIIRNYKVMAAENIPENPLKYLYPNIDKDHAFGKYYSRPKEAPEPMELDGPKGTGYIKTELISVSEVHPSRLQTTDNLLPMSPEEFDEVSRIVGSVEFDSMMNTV", "test": "PubChem AID 1396"}
{"smiles": "CCN1C(=O)C(=CNNC(=O)c2ccncc2)C(=O)N(CC)C1=S", "note": "[SMR000218837]", "values": [{"measurement": "IC50", "value": 4.42, "unit": "µM"}]}
